From patent US20030129204A1, “Vaccines against helminthic parasites” (priority 1994, published 2003)
Read-outs that look alike come from different tables or passages of the source. Where a SMILES comes first, the peptide text is derived from it. [ ]: non-standard residue; d: D form. The star is where a group is joined. Sta = CC(C)C[C@H](N)[C@@H](O)CC(=O)O; Isovaleryl = CC(C)CC(=O)*

Key:
[1] = test system: TSBP proteinases; test: Gelatin-substrate gel analysis of TSBP proteinases with inhibitors (O. circumcincta); format: biochemical
Protocol: (§1) TSBP were fractionated by non-reducing SDS-PAGE in 7.5% gel slabs containing 0.1% gelatin. The electrode buffer (Laemmli, 1977) was chilled on ice prior to use. After electrophoresis, SDS was eluted from the gel by extensive washing with 2.5% Triton X-100 for 30 minutes. Gel slabs were incubated overnight at 37° C. in 0.1M acetate buffer pH 5, 2 mM with respect to DTT or 0.1M Tris, pH 8.5. For some experiments TSBP were incubated with proteinase inhibitors prior to electrophoresis and inhibitors were also included in the incubation buffer at the final concentrations indicated above. Proteinases were visualised by Coomassie blue counter-staining.
Proteinase activity associated with TSBP was monitored using gelatin-substrate gel analysis as described in Example 2 (paragraph (b)) to enable the characterisation of individual proteinases.

[2] = test system: TSBP proteinases; format: biochemical, H. contortus; conditions: for proteolysis reduced in the presence of inhibitor (percent activity lost): pH 8.5
Protocol: TSBP (2 μg protein in 10 μl) were mixed with 1OO μl sterile buffer (0.1M acetate, pH5) and 20 μl azocasein (1 mg/ml) in the same buffet. The reaction mixture was supplemented with penicillin (500 iu/ml) and streptomycin (5 mg/ml), vortexed briefly and then incubated overnight at 37° C. Undigested protein was precipitated by the addition of 1M perchloric acid (13O μl) and incubation on ice for 30 minutes. Following centrifugation at 11,000 g for 5 minutes the 0D405 of the resulting supernatant was determined. Blank reactions, containing sterile water instead of TSBP, were run in parallel. The optimal pH for enzyme activity was determined in a series of reactions using buffers over the pH range 3 to 10.
The effects of various proteinase inhibitors on TSBP proteinases were monitored by incubating TSBP with buffer supplemented with inhibitor for 30 minutes prior to addition of azocasein and antibiotics. Inhibitors tested and the final reaction concentrations were phenylmethanesulphonylfluoride (PMSF, 1.0 mM), L-transepoxysuccinyl-L-leucylamido-(4-guanidino)-butane (E64, 100 μM), ethylenediaminetetraacetic-acid (EDTA, 1.0 mM) and pepstatin (10 μM).

[3] = test system: TSBP proteinases; test: Gelatin-substrate gel analysis of TSBP proteinases with inhibitors (H. contortus); format: biochemical; conditions: for 70 kDa proteinase activity / 88 kDa proteinase activity: pH 8.5, PMSF 1.0 mM or EDTA 1.0 mM
Protocol: as §1

[4] = pH 5, azocasein, PMSF 1.0 mM, EDTA 1.0 mM, pepstatin 10 μM

| SMILES | 97 kDa protease ([1]; pH 8.5) | 70 kDa proteinase activity [3] | 88 kDa proteinase activity [3] | percent activity lost in comparison to a control preparation in the absence of the inhibitor [2, 4] [%] | also measured |
| --- | --- | --- | --- | --- | --- |
| c1cnc2c(c1)ccc1cccnc12 [1,10 Phe] | inhibited | – | – | – | – |
| CC(C)C[C@H](NC(=O)[C@H]1O[C@@H]1C(=O)O)C(=O)NCCCCN=C(N)N [E64, L-transepoxysuccinyl-L-leucylamido-(4-guanidino)-butane] | – | – | – | – | TSBP proteinase activity in the presence of inhibitor ([2]; pH 5, azocasein, E64 100 μM): eliminated; zones of proteolysis at 37-38, 52, 70 and 100 kDa ([3]; pH 5, E64 100 μM): abolished; zones of proteolysis at 40, 50 and 70 kDa and stack/separating gel interface ([1]; pH 5): completely inhibited |
| O=C(O)CN(CCN(CC(=O)O)CC(=O)O)CC(=O)O [EDTA, ethylenediaminetetraacetic-acid] | – | markedly reduced | completely inhibited | – | percent activity lost in comparison to a control preparation in the absence of the inhibitor ([2]; pH 5): 11%; proteolysis reduced in the presence of inhibitor (percent activity lost) [2]: 43% |
| O=S(=O)(F)Cc1ccccc1 [PMSF, phenylmethanesulphonylfluoride] | inhibited | markedly reduced | completely inhibited | 28 | proteolysis reduced in the presence of inhibitor (percent activity lost) ([2]; azocasein, PMSF 1.0 mM, EDTA 1.0 mM): 52%; 85 kDa doublet proteolysis ([1]; pH 8.5): inhibited |
| CC(C)CC(=O)N[C@H](C(=O)N[C@H](C(=O)N[C@@H](CC(C)C)[C@@H](O)CC(=O)N[C@@H](C)C(=O)N[C@@H](CC(C)C)[C@@H](O)CC(=O)O)C(C)C)C(C)C [Pepstatin, pepstatin] (Isovaleryl-VV[Sta]A[Sta]-OH) | – | – | – | 6 | – |
